Reference: patent US5204345A, “6-epifumagillols and the pharmaceutical use thereof” (Takeda Chemical Industries, Ltd., priority 1989, dated 1993)
pIC50: −log10 of the molar value. Converted amounts (≈) assume the structure as drawn. Read-outs that look alike come from different tables or passages of the source.

Columns and labels:
[1] = system: bFGF-induced angiogenesis; experiment: rat cornea micropocket method, angiogenesis inhibitory activity; format: in vivo, rat (Sprague-Dawley); conditions: number of rats with angiogenesis inhibitory activity relative to number tested; sample 20 ug pellet, bFGF 250 ng, 10 days
Procedure: The object compounds (I) obtained in the Examples given below were evaluated for angiogenesis inhibitory activity by the rat cornea micropocket method. Method of Evaluation:
Essentially the same method of Gimbrone et al. [J. National Cancer Institute, 52, 413-419 (1974)] was followed. Thus, adult male Sprague-Dawley rats (11 to 16 week old) were anesthetized with nembutal and locally anesthetized by instillation of xylocaine eyedrops onto the eyeball. The cornea was incised to a length of about 2 mm at about 2 mm inside from the corneal circumference by means of an injection needle, and a basic fibroblast growth factor (bFGF; bovine brain-derived, purified product; R & D Inc.) and a sustained release pellet containing the test sample were inserted side by side into the incision so that the bFGF pellet was located on the central side in the cornea. In the control group, the bFGF pellet and a sample-free pellet were inserted into the cornea. After 10 days, the cornea was observed under a stereoscopic microscope.
The sustained release pellets were prepared in the following manner. An ethylene-vinyl acetate copolymer (Takeda Chemical Industries, Ltd.) was dissolved in dichloromethane to a concentration of 8%. A 3 μl portion of the solution was air-dried on a glass dish, an aqueous solution of bFGF (250 ng) was then placed thereon and air-dried and, finally 3 μl of the above ethylene-vinyl acetate copolymer solution was placed further thereon and air-dried to give a sandwich sheet. This sandwich sheet was made round into a bFGF pellet. The test sample pellets were prepared by dissolving each sample in ethanol in a concentration of 20 ug/2 μl, mixing the solution with 6 μl of an ethylene-vinyl acetate copolymer solution, air-drying the mixed solution in a glass dish and making the thus-obtainedsheet round.
In the Table 1 above, the inhibitory rate means the number of rats on which angiogenesis inhibitory activity was observed relative to the number of rats tested.

[2] = system: human umbilical vein endothelial cells; experiment: inhibition of human umbilical vein endothelial cell growth (MTT); format: cell-based; conditions: 120 h, rFGF 2 ng/ml, 5-day culture, MTT OD590, read-out: IC50, inhibiting endothelial cell growth
Procedure: Evaluation of inhibition of human umbilical vein endothelial cell growth
Human umbilical vein endothelial cells were isolated by perfusion of an umbilical vein with a trypsin-containing medium. The cells were cultured in sequence in GIT medium (Daigo Eiyo Kagaku) supplemented with 2.5% fetal bovine serum and 2.0 ng/ml or recombinant human fibroblast growth factor (hereinafter simply referred to rFGF, prepared at Biotechnology Research Laboratories, Takeda Chemical Industries, Ltd.).
A suspension of human vein endothelial cells at the cell density of 2×10^3 (100 μl) was seeded on 96-well incubation plate (Nunc, 1-67008), and incubation was conducted in a gas-controlled thermostat vessel. The following day, 100 μl of medium containing rFGF (2 ng/ml at the final concentration) and samples of various concentrations were added. […] After 5-day culture, the culture solution containing samples was removed by suction, 100 μl of 1 mg/ml of MTT solution [3-(4,5-dimethyl-2-thiazolyl)-2,5-diphenyl-2H-tetrazolium bromide was dissolved in the culture solution] was added and kept warm it about 40° C. for 4 hours. Then, 100 μl of a 10% SDS solution (aqueous solution of sodium dodecyl sulfate) was added, and the mixture was kept warming for 5-6 hours. The cells and MTT pigment were solubilized, and the OD590 value was measured using a spectrophotometer.

[3] = system: T cell dependent immunoglobulin production; experiment: antibody production induced by pokeweed mitogen (T cell dependent B cell mitogen); format: cell-based; conditions: in vitro
Text: (§1) The effects of compounds 5 and 8 on the antibody production induced by pokeweed mitogen, a T cell dependent B cell mitogen, and Epstein Barr virus, a T cell independent B cell mitogen, were examined.

[4] = system: T cell independent antibody production; experiment: antibody production induced by Epstein Barr virus (T cell independent B cell mitogen); format: cell-based; conditions: in vitro
Text: as §1

[5] = thymus and spleen weight; format: in vivo, mouse (BALB/c); conditions: for Spleen weight / Thymus weight: percentage against reference group injected with saline; for reduction of spleen weight: words
Procedure: and spleen were represented as percentages against those of a reference
group which were injected with saline.

[6] = system: germinal center formation and plasma cell induction in the spleen; experiment: histological study in the spleen of mice immunized with sheep red blood cells; format: in vivo, mouse (BALB/c); conditions: compounds 5 and 8: 100 mg/kg i.p. once a day for 4 days; day 6 after immunization; words
[7] = system: anti-bovine gamma globulin antibody titer; experiment: anti-bovine gamma globulin antibody titer in immunized mice; format: in vivo, mouse (BALB/c); conditions: for Anti-bovine gamma globulin antibody titer, suppression: 20 mg/kg i.p. every 2 days, sera 3 weeks after immunization, words; for Anti-bovine gamma globulin Ab titer: percentage against reference group injected with saline, compounds 5 and 8: 20 mg/kg i.p. every 2 days, 3 weeks
Procedure: Anti-bovine gamma globulin antibody titer was assayed in sera obtained 3 weeks after the immunization.

[8] = system: spleen cells from BALB/c and C57BL/6 mice; experiment: 3H-thymidine uptake induced by the mixed lymphocyte reaction of spleen cells; format: cell-based, mouse (BALB/c and C57BL/6); conditions: Mus musculus, in vitro
[9] = Table 3, read-out: T dependent Ab production, concentration which showed 50% inhibition
[10] = pokeweed mitogen, read-out: 50% suppression of T cell dependent immunoglobulin production, concentration
[11] = Epstein Barr virus, read-out: 50% suppression of T cell independent antibody production, concentration
[12] = Table 3, read-out: T independent Ab production, concentration which showed 50% inhibition
[13] = Lymphocyte, Table 3, read-out: Mixed lymphocyte reaction, concentration which showed 50% inhibition
[14] = mixed lymphocyte reaction, read-out: 50% inhibition of 3H-thymidine uptake, concentration

Question: Which results are given for `CO[C@@H]1[C@@H](OS(C)(=O)=O)CC[C@]2(CO2)[C@H]1[C@@]1(C)O[C@@H]1CC=C(C)C` [Example 12, 6-O-methanesulfonyl-6-epifumagillol]?
Answer: Inhibitory Rate [1]: 3/4; IC50 [2]: 6.5 ng/mL (≈ 18 nM)

Question: For `CO[C@@H]1[C@@H](OC(=O)c2ccccc2)CC[C@]2(CO2)[C@H]1[C@@]1(C)O[C@@H]1CC=C(C)C` [Example 6, 6-O-benzoyl-6-epifumagillol], which “Inhibitory Rate” value [1] is on record?
Answer: Its value is 6/6.

Question: And the IC50 [2]?
Answer: Its IC50 is 2.05 ng/mL (≈ 5.3 nM).

Question: With `CO[C@@H]1[C@@H](OC)CC[C@]2(CO2)[C@H]1[C@@]1(C)O[C@@H]1CC=C(C)C` [Example 3, 6-O-methyl-6-epifumagillol] as the molecule, how does the IC50 [2] read?
Answer: Its IC50 is 9.82 ng/mL (≈ 33.1 nM).

Question: Which IC50 [2] does the source give for `CO[C@@H]1[C@@H](OC(=O)N2CCOCC2)CC[C@]2(CO2)[C@H]1[C@@]1(C)O[C@@H]1CC=C(C)C` [Example 11, 6-O-morpholinocarbonyl-6-epifumagillol] here?
Answer: Its IC50 is 4.68 ng/mL (≈ 11.8 nM).

Question: With `CO[C@@H]1[C@@H](OC(C)=O)CC[C@]2(CO2)[C@H]1[C@@]1(C)O[C@@H]1CC=C(C)C` [Example 5, 6-O-acetyl-6-epifumagillol] as the molecule, how does the “Inhibitory Rate” value [1] read?
Answer: The value was 4/8.

Question: And the pIC50 [3, 9]?
Answer: Its pIC50 is 5.15.

Question: What about the pIC50 [3, 10] of the same molecule?
Answer: Its pIC50 is 5.15.

Question: And the pIC50 [4, 11]?
Answer: Its pIC50 is 7.52.

Question: What about the pIC50 [4, 12] of the same molecule?
Answer: Its pIC50 is 7.52.

Question: What about the Spleen weight [5] of the same molecule?
Answer: Its Spleen weight is 57%.

Question: And the Thymus weight [5]?
Answer: Its Thymus weight is 105%.

Question: And the “reduction of spleen weight” value [5]?
Answer: The value was “reduction of spleen weight was observed”.

Question: What about the “formation of germinal center in the spleen” value [6] of the same molecule?
Answer: The value was “suppressed the formation of germinal center”.

Question: And the “induction of plasma cells in the spleen” value [6]?
Answer: Its value is “suppressed”.

Question: And the IC50 [2]?
Answer: Its IC50 is 1.91 ng/mL (≈ 5.89 nM).

Question: And the “Anti-bovine gamma globulin antibody titer, suppression” value [7]?
Answer: Its value is “significant suppression”.

Question: What about the “Anti-bovine gamma globulin Ab titer” value [7] of the same molecule?
Answer: The value was 13%.

Question: What about the pIC50 [8, 13] of the same molecule?
Answer: The pIC50 was 6.52.

Question: What about the pIC50 [8, 14] of the same molecule?
Answer: Its pIC50 is 6.52.

Question: Which “Inhibitory Rate” value [1] does the source give for `CO[C@@H]1[C@@H](OC=O)CC[C@]2(CO2)[C@H]1[C@@]1(C)O[C@@H]1CC=C(C)C` [Example 1, 6-O-formyl-6-epifumagillol] here?
Answer: Its value is 3/7.

Question: What about the IC50 [2] of the same molecule?
Answer: The IC50 was < 0.08 ng/mL.

Question: Which IC50 [2] does the source give for `CO[C@@H]1[C@@H](OC(N)=O)CC[C@]2(CO2)[C@H]1[C@@]1(C)O[C@@H]1CC=C(C)C` [Example 9, 6-O-carbamoyl-6-epifumagillol] here?
Answer: The IC50 was 0.1 ng/mL (≈ 0.307 nM).

Question: For `CO[C@@H]1[C@@H](OC(=O)CCC(=O)O)CC[C@]2(CO2)[C@H]1[C@@]1(C)O[C@@H]1CC=C(C)C` [Example 7, 6-O-(3-carboxypropionyl)-6-epifumagillol], which “Inhibitory Rate” value [1] is on record?
Answer: The value was 5/6.

Question: What about the IC50 [2] of the same molecule?
Answer: Its IC50 is 8.71 ng/mL (≈ 22.8 nM).

Question: For `CO[C@@H]1[C@@H](O)CC[C@]2(CO2)[C@H]1[C@@]1(C)O[C@@H]1CC=C(C)C` [Example 2, 6-epifumagillol], which “Inhibitory Rate” value [1] is on record?
Answer: Its value is 3/7.

Question: And the IC50 [2]?
Answer: Its IC50 is < 0.08 ng/mL.

Question: With `CO[C@@H]1[C@@H](OC(=O)Oc2ccccc2)CC[C@]2(CO2)[C@H]1[C@@]1(C)O[C@@H]1CC=C(C)C` [Example 8, 6-O-phenoxycarbonyl-6-epifumagillol] as the molecule, how does the “Inhibitory Rate” value [1] read?
Answer: The value was 5/7.

Question: And the pIC50 [3, 9]?
Answer: The pIC50 was 5.40.

Question: And the pIC50 [3, 10]?
Answer: Its pIC50 is 5.40.

Question: What about the pIC50 [4, 11] of the same molecule?
Answer: Its pIC50 is 9.00.

Question: And the pIC50 [4, 12]?
Answer: The pIC50 was 9.00.

Question: And the Spleen weight [5]?
Answer: Its Spleen weight is 60%.

Question: And the Thymus weight [5]?
Answer: Its Thymus weight is 116%.

Question: What about the “reduction of spleen weight” value [5] of the same molecule?
Answer: Its value is “reduction of spleen weight was observed”.

Question: And the “formation of germinal center in the spleen” value [6]?
Answer: Its value is “suppressed the formation of germinal center”.

Question: And the “induction of plasma cells in the spleen” value [6]?
Answer: Its value is “suppressed”.

Question: What about the IC50 [2] of the same molecule?
Answer: Its IC50 is 0.166 ng/mL (≈ 0.412 nM).

Question: What about the “Anti-bovine gamma globulin antibody titer, suppression” value [7] of the same molecule?
Answer: Its value is “significant suppression”.

Question: And the “Anti-bovine gamma globulin Ab titer” value [7]?
Answer: The value was 9%.

Question: And the pIC50 [8, 13]?
Answer: The pIC50 was 6.40.

Question: What about the pIC50 [8, 14] of the same molecule?
Answer: The pIC50 was 8.00.
